Values of other authors in PubChem BioAssay AID1259409 (Chemical Carcinogenesis Research Information System (CCRIS), 2018).

System: rodent chemically induced tumor inhibition, incidence and multiplicity
Assay: CCRIS tumor inhibitor studies

CC/C=C\C/C=C\C/C=C\CCCCCCCC(=O)OC[C@H](CO[C@@H]1O[C@H](CO[C@H]2O[C@H](CO)[C@H](O)[C@H](O)[C@H]2O)[C@H](O)[C@H](O)[C@H]1O)OC(=O)CCCCCCCCCCCCC
tumour outcome (control, treated, inhibition, significance) (Carcinogen: 7,12-DIMETHYLBENZ[A]ANTHRACENE, 57-97-6, Dose [Inhibitor]: 0, 85 NMOL IN 0.1 ML ACETONE 2/WK FOR 20 WK APPLIED 1 HR PRIOR TO EACH PROMOTER DOSE (STUDY DURATION: 21 WK), Route [Inhibitor]: DERMAL, Species: MOUSE, Strain/Sex: ICR/FEMALE, Target Tissue: Type of Lesion: SKIN: PAPILLOMA, Dose [Carcinogen]: 390 NMOL IN 0.1 ML ACETONE ONCE, Promoter: 12-O-TETRADECANOYLPHORBOL-13-ACETATE, 16561-29-8): 100%, 68%, 32%, p<0.05

CCCCCCCCCCCCCCCC(=O)OC[C@@]1(O)C[C@@]23CC[C@@H]4c5ccoc5CC[C@@]4(C)[C@@H]2CC[C@@H]1C3
tumour outcome (control, treated, inhibition, significance) (Carcinogen: 7,12-DIMETHYLBENZ[A]ANTHRACENE, 57-97-6, Dose [Inhibitor]: 0, 60 MG 1/D FOR 3 D BEGINNING 3 D PRIOR TO CARCINOGEN DOSE (STUDY DURATION: 20 WK), Route [Inhibitor]: GAVAGE, Species: RAT, Strain/Sex: SPRAGUE-DAWLEY/FEMALE, Target Tissue: Type of Lesion: MAMMARY GLAND: TUMOR, Dose [Carcinogen]: 12 MG IN 1 ML OLIVE OIL ONCE, Promoter: NONE USED): 84%, 69%, 18%, not significant

CC(C)(C)c1cc(O)ccc1O
tumour outcome (control, treated, inhibition, significance) (Carcinogen: 7,12-DIMETHYLBENZ[A]ANTHRACENE, 57-97-6, Dose [Inhibitor]: 0.8% IN POWDERED DIET BEGINNING 1 WK POST CARCINOGEN DOSE FOR 51 WK (STUDY DURATION: 52 WK), Route [Inhibitor]: ORAL, Species: RAT, Strain/Sex: SPRAGUE-DAWLEY/FEMALE, Target Tissue: Type of Lesion: EAR DUCT: BENIGN TUMOR, Dose [Carcinogen]: 2.5 MG/100 G BW IN 0.5 ML SESAME OIL ONCE, Promoter: NONE USED): 7/19 (37%), 5/16 (31%), 15%, not calculated
tumour outcome (control, treated, inhibition, significance) (Carcinogen: 7,12-DIMETHYLBENZ[A]ANTHRACENE, 57-97-6, Dose [Inhibitor]: 0.8% IN POWDERED DIET BEGINNING 1 WK POST CARCINOGEN DOSE FOR 51 WK (STUDY DURATION: 52 WK), Route [Inhibitor]: ORAL, Species: RAT, Strain/Sex: SPRAGUE-DAWLEY/FEMALE, Target Tissue: Type of Lesion: MAMMARY GLAND: CARCINOMA, Dose [Carcinogen]: 2.5 MG/100 G BW IN 0.5 ML SESAME OIL ONCE, Promoter: NONE USED): 6/19 (32%), 5/16 (31%), 0.9%, not calculated
tumour outcome (control, treated, inhibition, significance) (Carcinogen: 7,12-DIMETHYLBENZ[A]ANTHRACENE, 57-97-6, Dose [Inhibitor]: 0.8% IN POWDERED DIET BEGINNING 1 WK POST CARCINOGEN DOSE FOR 51 WK (STUDY DURATION: 52 WK), Route [Inhibitor]: ORAL, Species: RAT, Strain/Sex: SPRAGUE-DAWLEY/FEMALE, Target Tissue: Type of Lesion: MAMMARY GLAND: FIBROADENOMA, Dose [Carcinogen]: 2.5 MG/100 G BW IN 0.5 ML SESAME OIL ONCE, Promoter: NONE USED): 15/19 (79%), 4/16 (24%), 70%, p<0.001
tumour outcome (control, treated, inhibition, significance) (Carcinogen: BENZO[A]PYRENE, 50-32-8, Dose [Inhibitor]: 0.03 MMOL/G OF DIET DAILY STARTING 8 D BEFORE AND CONTINUING THROUGH 3 D AFTER CARCINOGEN TREATMENT FOLLOWED BY OBSERVAT, Route [Inhibitor]: ORAL, Species: MOUSE, Strain/Sex: ICR/FEMALE, Target Tissue: Type of Lesion: FORESTOMACH: NEOPLASM, Dose [Carcinogen]: 1 MG IN 0.2 ML CORN OIL 2/WK FOR 4 WK, Promoter: NONE USED): 94%, 85%, 10%, not significant
tumour outcome (control, treated, inhibition, significance) (Carcinogen: N-METHYL-N'-NITRO-N-NITROSOGUANIDINE, 70-25-7, N-ETHYL-N-HYDROXYETHYLNITROSAMINE, 13147-25-6, N-METHYLBENZYLNITROSAM, Carcinogen: N-METHYL-N'-NITRO-N-NITROSOGUANIDINE, 70-25-7, N-ETHYL-N-HYDROXYETHYLNITROSAMINE, 13147-25-6, N-METHYLBENZYLNITROSAM, Dose [Inhibitor]: 0, 1% IN DIET FOR 36 WK (STUDY DURATION: 36 WK), Route [Inhibitor]: ORAL, Species: RAT, Strain/Sex: F344/MALE, Target Tissue: Type of Lesion: COLON: CARCINOMA, Dose [Carcinogen]: 100 MG/KG BW MNNG ONCE, 750 MG/KG BW EHEN ONCE, 0.5 MG/KG BW MBN TWICE, 40 MG/KG BW DMH 4 TIMES, 0.05% DBN IN DRINKING W, Promoter: NONE USED): 10/18 (56%), 4/18 (22%), 61%, not calculated
tumour outcome (control, treated, inhibition, significance) (Carcinogen: N-METHYL-N'-NITRO-N-NITROSOGUANIDINE, 70-25-7, N-ETHYL-N-HYDROXYETHYLNITROSAMINE, 13147-25-6, N-METHYLBENZYLNITROSAM, Carcinogen: N-METHYL-N'-NITRO-N-NITROSOGUANIDINE, 70-25-7, N-ETHYL-N-HYDROXYETHYLNITROSAMINE, 13147-25-6, N-METHYLBENZYLNITROSAM, Dose [Inhibitor]: 0, 1% IN DIET FOR 36 WK (STUDY DURATION: 36 WK), Route [Inhibitor]: ORAL, Species: RAT, Strain/Sex: F344/MALE, Target Tissue: Type of Lesion: ESOPHAGUS: PAPILLOMA, Dose [Carcinogen]: 100 MG/KG BW MNNG ONCE, 750 MG/KG BW EHEN ONCE, 0.5 MG/KG BW MBN TWICE, 40 MG/KG BW DMH 4 TIMES, 0.05% DBN IN DRINKING W, Promoter: NONE USED): 3/18 (17%), 15/18 (83%), -388%, p<0.001
tumour outcome (control, treated, inhibition, significance) (Carcinogen: N-METHYL-N'-NITRO-N-NITROSOGUANIDINE, 70-25-7, N-ETHYL-N-HYDROXYETHYLNITROSAMINE, 13147-25-6, N-METHYLBENZYLNITROSAM, Carcinogen: N-METHYL-N'-NITRO-N-NITROSOGUANIDINE, 70-25-7, N-ETHYL-N-HYDROXYETHYLNITROSAMINE, 13147-25-6, N-METHYLBENZYLNITROSAM, Dose [Inhibitor]: 0, 1% IN DIET FOR 36 WK (STUDY DURATION: 36 WK), Route [Inhibitor]: ORAL, Species: RAT, Strain/Sex: F344/MALE, Target Tissue: Type of Lesion: FORESTOMACH: PAPILLOMA, Dose [Carcinogen]: 100 MG/KG BW MNNG ONCE, 750 MG/KG BW EHEN ONCE, 0.5 MG/KG BW MBN TWICE, 40 MG/KG BW DMH 4 TIMES, 0.05% DBN IN DRINKING W, Promoter: NONE USED): 6/18 (33%), 15/18 (83%), -151%, p<0.01
tumour outcome (control, treated, inhibition, significance) (Carcinogen: N-METHYL-N'-NITRO-N-NITROSOGUANIDINE, 70-25-7, N-ETHYL-N-HYDROXYETHYLNITROSAMINE, 13147-25-6, N-METHYLBENZYLNITROSAM, Carcinogen: N-METHYL-N'-NITRO-N-NITROSOGUANIDINE, 70-25-7, N-ETHYL-N-HYDROXYETHYLNITROSAMINE, 13147-25-6, N-METHYLBENZYLNITROSAM, Dose [Inhibitor]: 0, 1% IN DIET FOR 36 WK (STUDY DURATION: 36 WK), Route [Inhibitor]: ORAL, Species: RAT, Strain/Sex: F344/MALE, Target Tissue: Type of Lesion: KIDNEY: RENAL CELL TUMOR, Dose [Carcinogen]: 100 MG/KG BW MNNG ONCE, 750 MG/KG BW EHEN ONCE, 0.5 MG/KG BW MBN TWICE, 40 MG/KG BW DMH 4 TIMES, 0.05% DBN IN DRINKING W, Promoter: NONE USED): 8/18 (44%), 5/18 (28%), 36%, not calculated

O=C(CBr)c1ccc(Br)cc1
tumour outcome (control, treated, inhibition, significance) (Carcinogen: 7,12-DIMETHYLBENZ[A]ANTHRACENE, 57-97-6, Dose [Inhibitor]: 10 UMOL APPLIED 30-40 MIN BEFORE EACH TPA TREATMENT AND CONCURRENTLY WITH TPA (STUDY DURATION: 18 WK), Route [Inhibitor]: DERMAL, Species: MOUSE, Strain/Sex: CD-1/FEMALE, Target Tissue: Type of Lesion: SKIN: PAPILLOMA, Dose [Carcinogen]: 200 NMOL ONCE, Promoter: 12-O-TETRADECANOYLPHORBOL-13-ACETATE, 16561-29-8): 96%, 57%, 41%, not calculated
tumour outcome (control, treated, inhibition, significance) (Carcinogen: N-NITROSODIETHYLAMINE, 55-18-5, 2-ACETYLAMINOFLUORENE, 53-93-6, CARBON TETRACHLORIDE, 56-23-5, Carcinogen: N-NITROSODIETHYLAMINE, 55-18-5, 2-ACETYLAMINOFLUORENE, 53-93-6, CARBON TETRACHLORIDE, 56-23-5, Dose [Inhibitor]: 0, 0.75% IN DIET FOR 29 WK ADMINISTERED TO RATS BEARING PERSISTENT NODULES FOLLOWING CARCINOGEN TREATMENT (STUDY DURATIO, Route [Inhibitor]: ORAL, Species: RAT, Strain/Sex: F344/MALE, Target Tissue: Type of Lesion: LIVER: HEPATOCELLULAR CARCINOMA, Dose [Carcinogen]: 200 MG/KG BW DEN ONCE, 0.002% 2-AAF IN DIET FOR 2 WK, 1 MG/KG BW CCL4 MIDWAY IN 2-AAF TREATMENT, Dose [Carcinogen]: 200 MG/KG BW DEN ONCE, 0.002% 2-AAF IN DIET FOR 2 WK, 1 MG/KG BW CCL4 MIDWAY IN 2-AAF TREATMENT, Promoter: NONE USED): 7/8 (88%), 11/11 (100%), -12%, not significant
tumour outcome (control, treated, inhibition, significance) (Carcinogen: N-NITROSODIETHYLAMINE, 55-18-5, 2-ACETYLAMINOFLUORENE, 53-93-6, CARBON TETRACHLORIDE, 56-23-5, Carcinogen: N-NITROSODIETHYLAMINE, 55-18-5, 2-ACETYLAMINOFLUORENE, 53-93-6, CARBON TETRACHLORIDE, 56-23-5, Dose [Inhibitor]: 0, 0.75% IN DIET FOR 29 WK ADMINISTERED TO RATS BEARING PERSISTENT NODULES FOLLOWING CARCINOGEN TREATMENT (STUDY DURATIO, Route [Inhibitor]: ORAL, Species: RAT, Strain/Sex: F344/MALE, Target Tissue: Type of Lesion: LIVER: HEPATOCELLULAR CARCINOMA, Dose [Carcinogen]: 200 MG/KG BW DEN ONCE, 0.002% 2-AAF IN DIET FOR 2 WK, 1 ML/KG BW CCL4 MIDWAY IN 2-AAF TREATMENT, Dose [Carcinogen]: 200 MG/KG BW DEN ONCE, 0.002% 2-AAF IN DIET FOR 2 WK, 1 ML/KG BW CCL4 MIDWAY IN 2-AAF TREATMENT, Promoter: PHENOBARBITAL, 50-06-6): 12/12 (100%), 13/14 (93%), 7%, not significant
